Results as given in PMC10303271, “Synthesis and Receptor Binding Studies of α5 GABAAR Selective Novel Imidazodiazepines Targeted for Psychiatric and Cognitive Disorders” (Molecules, 2023).

What was measured:
5-HT5A = biological target: T1, 5-HT5A (Homo sapiens, UniProt P47898); test: PDSP primary binding 5-HT5A; conditions: 1.5 h; primary binding, 10,000 nM; last figure of the line = mean of the 4 before it; read-out: 5-HT5A, PDSP raw data, mean
T1 construct: purchased NIMH Psychoactive Drug Screening Program (PDSP)
T1 sequence (P47898 whole entry): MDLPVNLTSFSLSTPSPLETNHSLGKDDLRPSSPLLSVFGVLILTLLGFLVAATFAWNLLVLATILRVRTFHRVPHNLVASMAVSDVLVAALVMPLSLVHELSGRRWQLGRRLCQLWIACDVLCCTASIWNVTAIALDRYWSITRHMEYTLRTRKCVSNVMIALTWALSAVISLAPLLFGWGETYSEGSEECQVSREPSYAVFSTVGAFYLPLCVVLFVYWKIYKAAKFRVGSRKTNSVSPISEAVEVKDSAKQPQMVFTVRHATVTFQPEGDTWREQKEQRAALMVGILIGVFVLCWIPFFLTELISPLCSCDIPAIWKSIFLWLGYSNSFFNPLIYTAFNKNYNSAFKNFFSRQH
Protocol: (§1) To determine if any off-target receptor-binding effects are present, all the novel ligands were sent to the National Institute of Mental Health (NIMH), Psychoactive Drug Screening Program (PDSP). The ligands were screened over a panel of 47 receptors, ion channels, and transporters to determine any other possible interactions with […]. The hERG-binding was also determined. […] No binding of the test compounds to calcium channels was observed. […] It is necessary to screen the compounds for hERG-binding during the early process of drug discovery. The unintentional binding of many drugs to hERG can cause blockade of hERG K+ channels in the heart, which can cause many side effects including cardiac arrhythmias and sudden death. […] All of the α5 imidazodiazepines were tested for hERG-binding.
(§2) The NIMH PDSP assay protocol book [https://kidbdev.med.unc.edu/databases/PDSP%20Protocols%20II%202013-03-28.pdf accessed on 23 April 2023]. describes the protocols for primary and secondary radio-ligand binding assays. These assays were carried out in a final volume of 125 µL per well in the appropriate binding buffer.
(§3) The binding of a ligand to a receptor, ion channel, or transporter was determined in the […] of 10 µM of the appropriate reference compound. […] Plates were incubated in the dark for 90 min at rt, and the reactions were stopped by vacuum filtration onto 0.3% polyethyleneimine (PEI) soaked 96-well filter mats using a 96-well Filtermateharvester. This was followed by three washes with cold PBS buffer. Radioactivity was then counted on a Microbeta counter. Nonlinear regression was used to analyze the data with N = 6 replicates.

5-HT6 = biological target: T2, 5-HT6 (Homo sapiens, UniProt P50406); test: PDSP primary binding 5-HT6; conditions: 1.5 h; primary binding, 10,000 nM; last figure of the line = mean of the 4 before it; read-out: 5-HT6, PDSP raw data, mean
T2 construct: purchased NIMH Psychoactive Drug Screening Program (PDSP)
T2 sequence (P50406 whole entry): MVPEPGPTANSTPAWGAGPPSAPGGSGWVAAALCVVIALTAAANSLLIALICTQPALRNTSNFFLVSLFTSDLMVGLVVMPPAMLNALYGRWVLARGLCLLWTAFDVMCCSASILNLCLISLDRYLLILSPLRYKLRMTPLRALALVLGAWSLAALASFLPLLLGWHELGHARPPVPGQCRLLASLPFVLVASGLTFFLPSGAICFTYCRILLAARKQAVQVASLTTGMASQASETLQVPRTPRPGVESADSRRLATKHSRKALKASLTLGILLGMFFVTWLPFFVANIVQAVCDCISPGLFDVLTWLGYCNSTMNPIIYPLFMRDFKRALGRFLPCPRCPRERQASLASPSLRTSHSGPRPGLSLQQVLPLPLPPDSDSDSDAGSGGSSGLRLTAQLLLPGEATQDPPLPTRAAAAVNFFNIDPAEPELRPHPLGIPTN
Protocol: as §1, §2, §3

Alpha1D = biological target: T3, Alpha1D (Homo sapiens, UniProt P25100); test: PDSP primary binding Alpha1D; conditions: 1.5 h; primary binding, 10,000 nM; last figure of the line = mean of the 4 before it; read-out: Alpha1D, PDSP raw data, mean
T3 construct: purchased NIMH Psychoactive Drug Screening Program (PDSP)
T3 sequence (P25100 1-572): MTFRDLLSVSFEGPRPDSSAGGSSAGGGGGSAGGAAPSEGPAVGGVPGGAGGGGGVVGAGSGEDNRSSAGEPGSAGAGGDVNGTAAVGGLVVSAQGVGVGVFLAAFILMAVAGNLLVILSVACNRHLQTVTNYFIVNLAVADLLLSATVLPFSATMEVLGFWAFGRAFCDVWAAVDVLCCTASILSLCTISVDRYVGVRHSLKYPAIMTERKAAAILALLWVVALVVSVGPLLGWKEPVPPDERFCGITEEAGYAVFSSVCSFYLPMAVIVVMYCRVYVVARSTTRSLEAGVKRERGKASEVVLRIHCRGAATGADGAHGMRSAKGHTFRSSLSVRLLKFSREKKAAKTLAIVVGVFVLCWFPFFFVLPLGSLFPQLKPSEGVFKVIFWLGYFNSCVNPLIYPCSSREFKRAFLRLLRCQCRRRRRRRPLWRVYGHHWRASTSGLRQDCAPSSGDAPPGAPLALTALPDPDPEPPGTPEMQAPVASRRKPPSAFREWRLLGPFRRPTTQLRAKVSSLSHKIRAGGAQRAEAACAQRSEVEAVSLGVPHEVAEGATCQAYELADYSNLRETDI
Protocol: as §1, §2, §3

M2 = biological target: T4, M2 (Homo sapiens, UniProt P08172); test: PDSP primary binding M2; conditions: primary binding, 10,000 nM; last figure of the line = mean of the 4 before it; read-out: M2, PDSP raw data, mean
T4 construct: purchased NIMH Psychoactive Drug Screening Program (PDSP)
T4 sequence (P08172 1-466): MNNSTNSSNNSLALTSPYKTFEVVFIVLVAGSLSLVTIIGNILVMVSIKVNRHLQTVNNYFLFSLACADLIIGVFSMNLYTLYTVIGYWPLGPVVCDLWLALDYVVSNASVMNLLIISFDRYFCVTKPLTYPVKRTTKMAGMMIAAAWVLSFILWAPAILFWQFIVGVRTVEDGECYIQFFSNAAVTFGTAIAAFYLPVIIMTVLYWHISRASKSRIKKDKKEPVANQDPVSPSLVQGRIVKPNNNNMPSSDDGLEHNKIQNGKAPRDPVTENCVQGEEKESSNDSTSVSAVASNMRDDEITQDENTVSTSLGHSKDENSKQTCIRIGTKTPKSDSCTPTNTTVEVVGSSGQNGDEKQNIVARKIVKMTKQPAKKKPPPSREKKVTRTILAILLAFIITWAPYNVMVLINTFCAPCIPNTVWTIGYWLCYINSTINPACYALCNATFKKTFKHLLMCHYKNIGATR
Protocol: as §1, §2, §3

M5 = biological target: T5, M5 (Homo sapiens, UniProt P08912); test: PDSP primary binding M5; conditions: primary binding, 10,000 nM; last figure of the line = mean of the 4 before it; read-out: M5, PDSP raw data, mean
T5 construct: purchased NIMH Psychoactive Drug Screening Program (PDSP)
T5 sequence (P08912 1-532): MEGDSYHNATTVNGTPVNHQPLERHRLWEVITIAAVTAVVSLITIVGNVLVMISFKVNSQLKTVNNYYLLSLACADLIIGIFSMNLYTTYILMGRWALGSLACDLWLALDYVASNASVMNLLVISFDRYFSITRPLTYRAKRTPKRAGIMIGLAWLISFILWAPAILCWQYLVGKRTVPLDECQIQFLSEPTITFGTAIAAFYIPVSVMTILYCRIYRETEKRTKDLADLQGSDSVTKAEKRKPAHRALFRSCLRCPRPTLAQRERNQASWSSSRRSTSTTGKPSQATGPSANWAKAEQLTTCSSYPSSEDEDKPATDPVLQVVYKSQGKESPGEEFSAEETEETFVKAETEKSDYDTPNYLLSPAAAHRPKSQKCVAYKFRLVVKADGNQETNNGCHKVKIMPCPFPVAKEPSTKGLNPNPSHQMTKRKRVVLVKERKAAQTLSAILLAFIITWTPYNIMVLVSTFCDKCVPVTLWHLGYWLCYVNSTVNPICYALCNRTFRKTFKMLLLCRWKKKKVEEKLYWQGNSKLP
Protocol: as §1, §2, §3

Structure (SMILES)	inhibition at 10 µM (5-HT5A) [%]	inhibition at 10 µM (5-HT6) [%]	inhibition at 10 µM (Alpha1D) [%]	inhibition at 10 µM (M2) [%]	inhibition at 10 µM (M5) [%]
C[C@H]1N=C(c2ccccc2F)c2cc(-c3ccccc3)ccc2-n2cnc(C(=O)N(C)C)c21 [Compound 5, (R)-6-(2′-Fluorophenyl)-N,N,4-trimethyl-8-phenyl-4H-benzo[f]imidazo[1,5-a][1,4]diazepine-3-carboxamide]	53.6	24.6	3.57	15.4	-0.76
C#Cc1ccc2c(c1)C(c1ccccc1Cl)=N[C@H](C)c1c(C(=O)NC)ncn1-2 [Compound 21, (R)-6-(2′-Chlorophenyl)-8-ethynyl-N,4-dimethyl-4H-benzo[f]imidazo[1,5-a][1,4]diazepine-3-carboxamide]	2.76	-8.24	-5.53	0.22	-8.03
C#Cc1ccc2c(c1)C(c1ccccn1)=N[C@@H](C)c1c(C(=O)NC)ncn1-2 [Compound 23, (S)-8-Ethynyl-N,4-dimethyl-6-(pyridin-2′-yl)-4H-benzo[f]imidazo[1,5-a][1,4]diazepine-3-carboxamide]	-2.76	18.1	-6.54	-6.16	-13.6
C#Cc1ccc2c(c1)C(c1ccccc1Cl)=N[C@H](C)c1c(C(=O)N(C)CC)ncn1-2 [Compound 29]	-3.73	14.9	-11.9	3.03	-17.5
C#Cc1ccc2c(c1)C(c1ccccn1)=N[C@@H](C)c1c(C(=O)N(C)C)ncn1-2 [Compound 31, (S)-8-Ethynyl-N,N,4-trimethyl-6-(pyridin-2′-yl)-4H-benzo[f]imidazo[1,5-a][1,4]diazepine-3-carboxamide]	-7.46	18.1	-6.09	3.03	-11.8
C#Cc1ccc2c(c1)C(c1ccccc1F)=N[C@H](C)c1c(C(=S)N(C)C)ncn1-2 [Compound 33, (R)-8-Ethynyl-6-(2′-fluorophenyl)-N,N,4-trimethyl-4H-benzo[f]imidazo[1,5-a][1,4]diazepine-3-carbothioamide]	53.6	24.6	3.57	15.4	-0.76
CCc1noc(-c2ncn3c2[C@@H](C)N=C(c2ccccc2F)c2cc(-c4ccccc4)ccc2-3)n1 [Compound 35, (R)-3-Ethyl-5-(6-(2′-fluorophenyl)-4-methyl-8-phenyl-4H-benzo[f]imidazo[1,5-a][1,4]diazepin-3-yl)-1,2,4-oxadiazole]	19.5	10.3	-0.4	-7.95	-7.39
CCc1noc(-c2ncn3c2[C@@H](C)N=C(c2ccccc2F)c2cc(Cl)ccc2-3)n1 [Compound 36, (R)-5-(8-Chloro-6-(2′-fluorophenyl)-4-methyl-4H-benzo[f]imidazo[1,5-a][1,4]diazepin-3-yl)-3-ethyl-1,2,4-oxadiazole]	-1.84	10.8	-14.3	-3.62	-10.7
CC(C)c1noc(-c2ncn3c2[C@@H](C)N=C(c2ccccc2F)c2cc(Cl)ccc2-3)n1 [Compound 37, (R)-5-(8-Chloro-6-(2′-fluorophenyl)-4-methyl-4H-benzo[f]imidazo[1,5-a][1,4]diazepin-3-yl)-3-isopropyl-1,2,4-oxadiazole]	-2.71	-1.65	4.09	-19.3	-4.88
C[C@H]1N=C(c2ccccc2F)c2cc(Cl)ccc2-n2cnc(-c3nc(C4CC4)no3)c21 [Compound 38, (R)-5-(8-Chloro-6-(2′-fluorophenyl)-4-methyl-4H-benzo[f]imidazo[1,5-a][1,4]diazepin-3-yl)-3-cyclopropyl-1,2,4-oxadiazole]	-2.84	-6.37	-2.84	-9.65	-5.18
CCc1noc(-c2ncn3c2CN=C(c2ccccc2F)c2cc(C4CC4)ccc2-3)n1 [Compound 44, 5-(8-Cyclopropyl-6-(2′-fluorophenyl)-4H-benzo[f]imidazo[1,5-a][1,4]diazepin-3-yl)-3-ethyl-1,2,4-oxadiazole]	5.08	27.6	1.28	-13.6	-14.1
CCc1noc(-c2ncn3c2[C@@H](C)N=C(c2ccccc2F)c2cc(C4CC4)ccc2-3)n1 [Compound 46, (R)-5-(8-Cyclopropyl-6-(2′-fluorophenyl)-4-methyl-4H-benzo[f]imidazo[1,5-a][1,4]diazepin-3-yl)-3-ethyl-1,2,4-oxadiazole]	23.6	71.5	34.9	5.73	5.69
